Experimental data: US20240285808A1, “MOLECULAR PROBES FOR IN VIVO DETECTION OF ALDEHYDES” (The General Hospital Corporation, priority 2021, published 2024)
Like-named read-outs stand apart in the source and are kept apart here.

Tests used:
[1] = system: lung of SAMP8/SAMR1 mice with TAC; test: MR imaging of lung in transverse aortic constriction (TAC) model; format: in vivo, mouse; conditions: 20 min post injection
Text: (§1) Combined Heart and Lung Fibrosis Model:
(§2) Left ventricular dysfunction with pulmonary hypertension was induced by left thoracotomy transverse aortic constriction surgery (TAC) in 6-month-old senescence-accelerated-prone/resistant mice (SAMP8/SAMR1), which is a well-established model of pressure overload-induced cardiac hypertrophy that can induce heart and lung fibrosis. The transverse aorta was encircled with 7-0 nylon suture and tied tightly around a pre-sterilized, blunt-end of a 27-gauge needle. After securing the knot, the needle was removed, and aortic flow resumed. Another two groups of SAMP8 and SAMR1 mice received sham surgery as control. 3-weeks post-surgery, mice were anesthetized with isoflurane (1.5%) and imaged at a 4.7 Tesla Bruker MRI scanner.
(§3) For combined heart and lung imaging, a series of baseline images (2D T1 weighted FLASH for heart and 3D-UTE for lung) were first acquired. 2D T1 weighted FLASH: repetition time/echo time=18.24/3.54 ms; flip angle, 50°; field of view, 36×36 mm^2; matrix size, 138×138 mm^2; slice thickness, 1 mm; acquisition time, 3 minutes 50 seconds. 3D-UTE: repetition time/echo time=4/0.01225 ms; flip angle, 16°; field of view, 32×32 mm^2; matrix size, 128×128 mm^2; slice thickness, 0.25 mm; acquisition time, 3 minutes 36 seconds. Then a bolus of Gd-9 complex was administered i.v. and imaging performed for a period of 40 min p.i. with the repetition acquisition of 2D T1 weighted FLASH and 3D-UTE sequences. Following the imaging session, animals were sacrificed and heart and lung tissue was subjected to histopathologic analysis.
For lung imaging analysis, RARE image, FLASH image pre-contrast and immediately post-contrast were used to define regions of interest (ROIs) in the lung that excluded vessels and airways. A total of 6 lung ROIs were defined on axial UTE images to obtain signal intensity (SI); ROIs in the dorsal muscle in each slice were also defined as reference; ROIs in the field of view without any tissue (air) were used to measure the variation in background signal. Then the lung-to muscle ratio (LMR) or contrast to noise ratio (CNR) was averaged from the 6 slices to calculate changes in LMR (ΔLMR) or CNR (ΔCNR) at each time point.

[2] = system: liver of bile duct ligated (BDL) rats; test: MR imaging of liver in bile duct ligated rat liver fibrosis model; format: in vivo; conditions: for ΔCNR of liver: 30 min post injection
Description: Rat Liver Fibrosis Model:
Liver fibrosis was induced in male Sprague Dawley rats (n=7) by ligation of the common bile duct (CD®, Charles River Labs, Wilmington, MA). Control animals (n=4) underwent a sham procedure. The BDL and sham rats were imaged 10 days following ligation with a dose of […] of Gd-9 based on body surface area.
T1-mapping was performed with a flow sensitive alternating inversion recovery (FAIR) sequence: repetition time/echo time=11000/33.8 ms; flip angle, 90°; inversion times: 100, 200, 400, 500, 600, 1000, 1500, 2000 ms; field of view, 60×60 mm^2; matrix size, 140×140; slice thickness, 2 mm; acquisition time, 3 minutes 34 seconds. T1 weighted imaging with 3D FLASH: repetition time/echo time=20/2.3 ms; flip angle, 30°; field of view, 60×60 mm^2; matrix size: 127×127; slice thickness, 0.5 mm; acquisition time, 3 minutes 10 seconds. Following the imaging session, animals were sacrificed (30 min p.i.) and liver tissue was subjected to histopathologic analysis.
Longitudinal relaxation rate (R1) maps were generated from the T1 mapping images using a custom written MATLAB (Mathworks, Natick, MA) program for voxel wise fitting of the inversion recovery signal intensities as a function of the inversion time. A region of interest (ROI) was manually traced encompassing the liver parenchyma while avoiding major blood vessels. ΔR1 was calculated by subtracting the R1Pre from R1Post, eq S3. ΔCNR were analyzed from 3D T1 weighted FLASH images, the same as that in mouse.

[3] = system: myocardium of SAMP8/SAMR1 mice with TAC; conditions: 20 min post injection
Text: as §1, §2, §3
For heart imaging analysis, FLASH image pre-contrast and immediately post-contrast were used to define regions of interest (ROIs) in the myocardium that excluded blood vessels. The percentage of signal intensity change (% SI) was calculated by comparing the SI measured after probe injection to SI measured prior to probe injection.

SMILES: NN1CCN(C(=O)CCC(C(=O)[O-])N2CCN(CC(=O)[O-])CCN(CC(=O)[O-])CCN(C(CCC(=O)N3CCN(N)CC3)C(=O)[O-])CC2)CC1.[Gd+3] (stereo not drawn) [Gd-9, cis-1,4-Gd-(CHyd)2]
- ΔCNR of lung ([1]; SAMP1-TAC): 1.2 ± 0.3
- ΔCNR of lung ([1]; SAMP8-Sham): 0.8 ± 0.5
- ΔCNR of lung ([1]; SAMP8-TAC): 3.1 ± 0.9
- ΔCNR of lung ([1]; Sham): 0.4 ± 0.2
- fold higher liver to muscle ΔCNR in BDL rats compared to sham rats ([2]; 30 min): 4 fold
- fold higher ΔR1 in BDL rats compared to sham rats ([2]; 30 min p.i.): 5 fold
- ΔCNR of liver ([2]; BDL rats (n = 7)): 3.4±1.6
- change of liver longitudinal relaxation rate ΔR1 ([2]; BDL rats, 30 min p.i.): 0.6±0.2
- ΔCNR of liver ([2]; Sham rats (n = 4)): 0.6±0.2
- ΔR1 ([2]; rat model, in vivo imaging): 0.6 s⁻¹
- change of liver longitudinal relaxation rate ΔR1 ([2]; sham rats, 30 min p.i.): 0.1±0.03
- % SI change of myocardium ([3]; SAMP1-Sham): 7.8 ± 4.7%
- % SI change of myocardium ([3]; SAMP1-TAC): 21.5 ± 8.4%
- % SI change of myocardium ([3]; SAMP8-Sham): 8.2 ± 5.3%
- % SI change of myocardium ([3]; SAMP8-TAC): 22 ± 7.9%
